Source: ChEMBL document CHEMBL1201862, “PubChem BioAssay data set” (2004)
The source made the active and inactive calls.

Assays:
HEK293 = experiment: cells; type: functional, cell-based; conditions: Homo sapiens
[1] = molecular target: T1, Nuclear receptor subfamily 0 group B member 1 (Homo sapiens, UniProt P51843); experiment: Luminescence-based cell-based high throughput dose response assay for inhibitors of the orphan nuclear receptor subfamily 0, group B, member 1 (DAX1; NR0B1). [Related pubchem assays (depositor defined):AID504766, AID504790]; type: functional
T1 sequence (P51843 whole entry): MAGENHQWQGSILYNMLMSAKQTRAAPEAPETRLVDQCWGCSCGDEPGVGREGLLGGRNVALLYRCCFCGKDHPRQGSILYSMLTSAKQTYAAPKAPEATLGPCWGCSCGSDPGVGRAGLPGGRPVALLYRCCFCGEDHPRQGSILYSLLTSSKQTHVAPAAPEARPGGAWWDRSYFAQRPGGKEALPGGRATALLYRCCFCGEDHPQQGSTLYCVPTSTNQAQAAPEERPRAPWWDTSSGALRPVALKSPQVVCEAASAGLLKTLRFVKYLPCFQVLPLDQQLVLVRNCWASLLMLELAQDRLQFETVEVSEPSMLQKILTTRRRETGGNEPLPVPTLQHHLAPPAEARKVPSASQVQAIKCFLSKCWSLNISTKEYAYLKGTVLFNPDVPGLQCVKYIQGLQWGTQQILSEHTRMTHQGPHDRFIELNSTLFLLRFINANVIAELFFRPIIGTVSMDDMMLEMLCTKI

[2] = molecular target: Ras and Rab interactor 1/Tyrosine-protein kinase ABL1 (Homo sapiens, UniProt P00519+Q13671); type: functional;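 note: biochemical TR-FRET dose-response test measuring inhibition of binding between Rin1 and Abl proteins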
[3] = Counterscreen for activators of the function of SWI/SNF related, matrix associated, actin dependent regulator of chromatin, subfamily a, member 2 (SMARCA2, BRM): Luminescence-based cell-based high throughput dose response assay to identify non-selective compounds using the VP16 reporter assay.; type: functional
Melanocortin receptor 4 = Melanocortin receptor 4 (Homo sapiens, UniProt P32245); experiment: MC4R antagonist potency on cAMP, dose response, cell-based, TR-FRET, biased antagonists (AID 602298); type: functional;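 note: antagonist potency against agonist-stimulated cAMP production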
Sequence of Melanocortin receptor 4 (P32245 whole entry): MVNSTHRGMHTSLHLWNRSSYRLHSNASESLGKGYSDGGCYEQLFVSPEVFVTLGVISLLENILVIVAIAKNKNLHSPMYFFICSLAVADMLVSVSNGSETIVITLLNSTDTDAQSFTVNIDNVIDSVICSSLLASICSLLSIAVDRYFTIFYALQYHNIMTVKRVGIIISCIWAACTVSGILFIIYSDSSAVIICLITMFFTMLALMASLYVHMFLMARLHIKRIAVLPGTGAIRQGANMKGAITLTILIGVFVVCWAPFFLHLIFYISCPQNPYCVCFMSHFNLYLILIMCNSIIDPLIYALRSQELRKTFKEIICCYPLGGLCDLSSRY

[4] = nonselective inhibitors of cellular cAMP signaling, dose response, counter-screen for MC4R biased antagonist project, cell-based, TR-FRET cAMP detection (AID 602305); type: functional;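 note: U2OS cells stimulated with forskolin near its EC80 as the cAMP inducer; potency is for inhibition of forskolin-stimulated cAMP signaling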
[5] = molecular target: SWI/SNF-related matrix-associated actin-dependent regulator of chromatin subfamily A member 2 (Homo sapiens, UniProt P51531); experiment: Luminescence-based cell-based high throughput dose response assay to identify activators of the function of SWI/SNF related, matrix associated, actin dependent regulator of chromatin, subfamily a, member 2 (SMARCA2, BRM).; type: functional
Sequence of SWI/SNF-related matrix-associated actin-dependent regulator of chromatin subfamily A member 2 (P51531 whole entry): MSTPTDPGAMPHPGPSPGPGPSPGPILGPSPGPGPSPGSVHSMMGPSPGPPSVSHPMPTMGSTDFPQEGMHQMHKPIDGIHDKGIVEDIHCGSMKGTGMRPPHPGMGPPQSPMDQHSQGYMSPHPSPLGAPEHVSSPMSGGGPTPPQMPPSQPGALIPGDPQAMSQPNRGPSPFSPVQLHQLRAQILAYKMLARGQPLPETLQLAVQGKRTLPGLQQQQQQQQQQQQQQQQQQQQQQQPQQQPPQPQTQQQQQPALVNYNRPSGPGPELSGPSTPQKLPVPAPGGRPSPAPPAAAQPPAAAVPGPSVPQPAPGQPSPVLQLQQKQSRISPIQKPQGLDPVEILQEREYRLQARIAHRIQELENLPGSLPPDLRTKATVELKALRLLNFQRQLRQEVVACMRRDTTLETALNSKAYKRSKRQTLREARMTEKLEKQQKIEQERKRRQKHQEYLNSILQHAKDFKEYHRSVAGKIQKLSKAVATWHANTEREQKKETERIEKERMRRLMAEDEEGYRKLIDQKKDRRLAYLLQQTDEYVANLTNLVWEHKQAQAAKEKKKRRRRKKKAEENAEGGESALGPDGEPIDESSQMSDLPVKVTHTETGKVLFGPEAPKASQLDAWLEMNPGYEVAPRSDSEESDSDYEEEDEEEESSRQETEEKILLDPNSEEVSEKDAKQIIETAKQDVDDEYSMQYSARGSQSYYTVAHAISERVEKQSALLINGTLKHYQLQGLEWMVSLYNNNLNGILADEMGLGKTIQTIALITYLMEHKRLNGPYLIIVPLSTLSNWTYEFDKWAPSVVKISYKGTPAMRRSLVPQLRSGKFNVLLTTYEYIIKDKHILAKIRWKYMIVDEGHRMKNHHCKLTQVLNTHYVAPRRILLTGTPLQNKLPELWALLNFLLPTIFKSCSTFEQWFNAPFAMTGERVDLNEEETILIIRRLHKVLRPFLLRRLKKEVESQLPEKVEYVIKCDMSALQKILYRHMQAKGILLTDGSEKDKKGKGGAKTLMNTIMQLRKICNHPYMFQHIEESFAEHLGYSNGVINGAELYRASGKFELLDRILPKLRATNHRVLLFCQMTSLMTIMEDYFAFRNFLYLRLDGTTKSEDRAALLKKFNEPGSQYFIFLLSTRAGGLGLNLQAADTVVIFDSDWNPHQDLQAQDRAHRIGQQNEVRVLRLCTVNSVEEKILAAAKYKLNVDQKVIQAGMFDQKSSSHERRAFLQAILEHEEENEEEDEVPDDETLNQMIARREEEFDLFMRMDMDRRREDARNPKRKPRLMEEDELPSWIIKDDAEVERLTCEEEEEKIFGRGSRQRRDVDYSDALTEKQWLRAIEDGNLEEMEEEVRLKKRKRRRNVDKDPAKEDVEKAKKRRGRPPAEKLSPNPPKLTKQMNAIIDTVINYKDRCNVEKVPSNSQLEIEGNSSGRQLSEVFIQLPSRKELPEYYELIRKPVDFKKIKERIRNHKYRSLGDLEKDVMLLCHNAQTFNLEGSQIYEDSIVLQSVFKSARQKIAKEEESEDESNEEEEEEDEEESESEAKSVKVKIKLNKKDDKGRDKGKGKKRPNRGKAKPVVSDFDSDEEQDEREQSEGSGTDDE

Prothrombin = Prothrombin (Bos taurus, UniProt P00735); experiment: thrombin inhibition, dose response, biochemical, fluorescence polarization, uHTS hits (AID 602369); type: functional
[6] = molecular target: 26S proteasome non-ATPase regulatory subunit 14 (Homo sapiens, UniProt O00487); experiment: inhibition of proteasome subunit RPN11 – biochemical, fluorescence polarization, uHTS hits, confirmation (AID 602368); type: functional
Sequence of 26S proteasome non-ATPase regulatory subunit 14 (O00487 whole entry): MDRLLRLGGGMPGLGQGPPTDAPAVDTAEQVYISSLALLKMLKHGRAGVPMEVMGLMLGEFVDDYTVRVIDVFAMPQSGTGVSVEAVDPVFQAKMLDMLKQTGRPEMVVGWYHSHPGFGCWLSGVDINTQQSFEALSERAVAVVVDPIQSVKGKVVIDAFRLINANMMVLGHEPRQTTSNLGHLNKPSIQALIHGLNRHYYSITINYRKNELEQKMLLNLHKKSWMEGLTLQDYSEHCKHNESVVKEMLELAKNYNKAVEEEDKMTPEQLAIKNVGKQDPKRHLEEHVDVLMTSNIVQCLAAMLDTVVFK

[7] = molecular target: Dual specificity tyrosine-phosphorylation-regulated kinase 1A (Rattus norvegicus, UniProt Q63470); type: biochemical, Homo sapiens
[8] = molecular target: 72 kDa type IV collagenase (Homo sapiens, UniProt P08253); experiment: Dose Response validation of uHTS RPN11 inhibitor hits using a MMP-2 Fluorescence assay.; type: functional
Sequence of 72 kDa type IV collagenase (P08253 whole entry): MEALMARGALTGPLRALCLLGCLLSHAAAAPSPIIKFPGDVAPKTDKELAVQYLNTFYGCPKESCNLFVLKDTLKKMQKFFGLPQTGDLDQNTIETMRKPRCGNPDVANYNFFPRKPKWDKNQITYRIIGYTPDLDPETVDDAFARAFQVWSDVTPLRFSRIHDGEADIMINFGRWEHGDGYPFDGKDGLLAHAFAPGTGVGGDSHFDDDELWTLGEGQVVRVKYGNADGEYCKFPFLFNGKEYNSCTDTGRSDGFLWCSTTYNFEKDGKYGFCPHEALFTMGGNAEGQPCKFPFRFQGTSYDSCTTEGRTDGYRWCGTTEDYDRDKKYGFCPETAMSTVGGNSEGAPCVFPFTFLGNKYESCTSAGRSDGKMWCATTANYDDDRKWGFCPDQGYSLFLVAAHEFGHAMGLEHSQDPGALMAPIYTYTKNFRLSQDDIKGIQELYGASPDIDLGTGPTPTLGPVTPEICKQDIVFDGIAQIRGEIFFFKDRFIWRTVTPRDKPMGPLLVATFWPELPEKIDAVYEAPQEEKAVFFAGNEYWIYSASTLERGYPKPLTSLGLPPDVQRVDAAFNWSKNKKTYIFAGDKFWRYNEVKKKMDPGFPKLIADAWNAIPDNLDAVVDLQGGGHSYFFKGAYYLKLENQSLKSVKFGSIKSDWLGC

[9] = molecular target: Heat shock protein HSP 90-alpha (Homo sapiens, UniProt P07900); type: functional, organism-based
[10] = molecular target: T2, Apoptotic protease-activating factor 1 (Homo sapiens, UniProt O14727); experiment: SAR analysis of small molecule Activators of Apaf-1 in a Fluorescent assay.; type: functional; conditions: read-out: EC50_Mean;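 note: caspase-3 cleavage of fluorogenic Rh110 DEVD substrate downstream of apoptosome activation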
T2 sequence (O14727 whole entry): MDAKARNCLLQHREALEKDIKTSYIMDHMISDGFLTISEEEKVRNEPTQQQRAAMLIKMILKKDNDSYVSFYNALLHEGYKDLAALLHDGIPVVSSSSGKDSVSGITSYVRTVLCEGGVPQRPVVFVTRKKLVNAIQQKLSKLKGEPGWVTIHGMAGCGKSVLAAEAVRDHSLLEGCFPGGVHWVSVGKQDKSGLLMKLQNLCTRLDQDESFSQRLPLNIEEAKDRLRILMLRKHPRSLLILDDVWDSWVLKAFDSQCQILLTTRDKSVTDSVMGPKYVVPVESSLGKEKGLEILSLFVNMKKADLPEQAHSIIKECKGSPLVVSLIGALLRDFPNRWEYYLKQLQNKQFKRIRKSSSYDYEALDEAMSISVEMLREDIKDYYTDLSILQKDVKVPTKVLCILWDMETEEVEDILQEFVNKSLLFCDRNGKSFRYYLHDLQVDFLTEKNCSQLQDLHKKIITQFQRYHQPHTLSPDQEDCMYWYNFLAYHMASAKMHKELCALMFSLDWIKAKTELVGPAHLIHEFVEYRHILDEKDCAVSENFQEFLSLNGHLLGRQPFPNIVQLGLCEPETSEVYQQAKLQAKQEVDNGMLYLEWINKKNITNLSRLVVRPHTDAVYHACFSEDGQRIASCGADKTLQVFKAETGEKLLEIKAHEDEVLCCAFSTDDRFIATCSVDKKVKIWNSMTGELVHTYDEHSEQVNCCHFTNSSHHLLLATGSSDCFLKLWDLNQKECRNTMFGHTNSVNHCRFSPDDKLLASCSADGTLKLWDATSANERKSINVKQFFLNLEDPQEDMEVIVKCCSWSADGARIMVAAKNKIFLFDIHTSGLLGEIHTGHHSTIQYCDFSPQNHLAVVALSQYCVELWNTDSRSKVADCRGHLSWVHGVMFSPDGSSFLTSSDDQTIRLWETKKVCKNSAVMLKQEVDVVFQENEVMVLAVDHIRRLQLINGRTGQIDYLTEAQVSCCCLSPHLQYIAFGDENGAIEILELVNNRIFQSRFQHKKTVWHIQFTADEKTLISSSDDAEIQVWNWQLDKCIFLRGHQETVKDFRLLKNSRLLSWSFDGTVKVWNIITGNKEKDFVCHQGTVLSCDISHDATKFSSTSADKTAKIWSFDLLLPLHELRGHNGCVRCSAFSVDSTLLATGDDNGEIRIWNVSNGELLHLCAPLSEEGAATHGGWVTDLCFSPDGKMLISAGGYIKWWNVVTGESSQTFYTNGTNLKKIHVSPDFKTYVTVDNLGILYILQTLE

[11] = molecular target: Protein disulfide-isomerase (Homo sapiens, UniProt P07237); experiment: PDI inhibitors, insulin aggregation turbidity, dose response, biochemical, absorbance, cherry-picked samples (AID 602350); type: functional
Sequence of Protein disulfide-isomerase (P07237 whole entry): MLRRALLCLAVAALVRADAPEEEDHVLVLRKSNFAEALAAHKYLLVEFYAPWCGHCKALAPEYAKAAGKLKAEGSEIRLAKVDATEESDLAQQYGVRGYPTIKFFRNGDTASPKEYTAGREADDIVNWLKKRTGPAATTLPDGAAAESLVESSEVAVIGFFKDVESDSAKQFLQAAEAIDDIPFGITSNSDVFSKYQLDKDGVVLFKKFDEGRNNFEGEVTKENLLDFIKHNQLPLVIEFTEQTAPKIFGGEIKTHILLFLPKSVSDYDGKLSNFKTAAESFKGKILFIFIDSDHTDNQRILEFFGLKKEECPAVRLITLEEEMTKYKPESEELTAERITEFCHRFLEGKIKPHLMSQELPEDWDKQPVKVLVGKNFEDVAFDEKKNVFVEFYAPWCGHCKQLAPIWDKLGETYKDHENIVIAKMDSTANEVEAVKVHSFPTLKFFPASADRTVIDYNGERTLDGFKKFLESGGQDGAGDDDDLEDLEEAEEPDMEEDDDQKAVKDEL

[12] = molecular target: Eukaryotic translation initiation factor 4E (Mus musculus, UniProt P63073); experiment: eIF4E–eIF4G protein interaction inhibitors, dose response, biochemical, TR-FRET (AID 855); type: functional;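 note: potency for disrupting eIF4E binding to eIF4GI seen as loss of FRET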
[13] = molecular target: Induced myeloid leukemia cell differentiation protein Mcl-1 (Homo sapiens, UniProt Q07820); type: functional
Sequence of Induced myeloid leukemia cell differentiation protein Mcl-1 (Q07820 whole entry): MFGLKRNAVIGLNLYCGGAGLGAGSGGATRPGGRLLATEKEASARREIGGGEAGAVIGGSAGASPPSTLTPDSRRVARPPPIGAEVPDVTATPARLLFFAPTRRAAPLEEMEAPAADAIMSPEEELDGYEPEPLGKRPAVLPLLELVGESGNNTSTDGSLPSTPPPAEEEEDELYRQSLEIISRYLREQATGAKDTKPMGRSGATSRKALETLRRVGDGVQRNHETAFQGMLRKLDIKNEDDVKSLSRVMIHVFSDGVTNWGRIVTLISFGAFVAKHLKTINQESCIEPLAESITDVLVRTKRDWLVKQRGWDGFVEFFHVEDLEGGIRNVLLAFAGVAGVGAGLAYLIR

[14] = molecular target: DNA (cytosine-5)-methyltransferase 1 (Homo sapiens, UniProt P26358); experiment: DNMT1 methyltransferase inhibitors, confirmation, biochemical, fluorescent molecular beacon (AID 602386); type: functional
[15] = molecular target: T3, Rac GTPase-activating protein 1 (Homo sapiens, UniProt Q9H0H5); experiment: MgcRacGAP GTPase-activating activity inhibitors, confirmation, biochemical, ADP Hunter fluorescence, primary and confirmatory (AID 624330); type: functional
T3 sequence (Q9H0H5 whole entry): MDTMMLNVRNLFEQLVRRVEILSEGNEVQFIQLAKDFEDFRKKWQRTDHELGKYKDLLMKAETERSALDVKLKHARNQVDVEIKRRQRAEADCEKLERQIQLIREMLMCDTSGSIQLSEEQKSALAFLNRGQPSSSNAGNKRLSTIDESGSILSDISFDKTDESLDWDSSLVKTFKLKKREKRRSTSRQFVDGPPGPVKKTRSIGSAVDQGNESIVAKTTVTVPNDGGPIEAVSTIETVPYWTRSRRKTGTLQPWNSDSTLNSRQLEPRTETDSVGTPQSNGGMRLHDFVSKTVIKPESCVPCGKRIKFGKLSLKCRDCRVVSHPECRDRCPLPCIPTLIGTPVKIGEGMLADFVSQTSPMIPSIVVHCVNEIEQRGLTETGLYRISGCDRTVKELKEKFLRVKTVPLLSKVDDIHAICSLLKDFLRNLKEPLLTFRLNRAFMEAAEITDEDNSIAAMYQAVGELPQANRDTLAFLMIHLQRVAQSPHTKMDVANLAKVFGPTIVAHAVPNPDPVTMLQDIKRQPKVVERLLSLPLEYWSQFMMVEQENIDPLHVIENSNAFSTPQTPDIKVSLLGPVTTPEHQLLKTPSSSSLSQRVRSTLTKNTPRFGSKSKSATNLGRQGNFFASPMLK

Ephrin type-A receptor 4 = Ephrin type-A receptor 4 (Mus musculus, UniProt Q03137); experiment: inhibitors of EphA4 binding to KYL peptide, primary screen, biochemical, colorimetric, mouse EphA4 (AID 689); type: functional
Escherichia coli = experiment: microbe, parasite or virus in culture
[16] = Shn3 3'UTR reporter inhibitors, dose response, cell-based, Clone20 osteoblasts, firefly luciferase, cherry-picked (AID 624132); type: functional;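 note: firefly luciferase luminescence from reporter carrying the Shn3 3'UTR in osteoblasts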
[17] = HepG2 cell cytotoxicity, dose response, cytotoxicity control for Shn3 inhibitor project, CellTiter-Glo, cherry-picked (AID 624134); type: functional, cell-based
[18] = control 3'UTR Renilla luciferase suppression, dose response, counter-screen for Shn3 inhibitor project, cell-based, Clone20-Shn3RL, cherry-picked (AID 624133); type: functional
[19] = molecular target: Tyrosine-protein kinase receptor TYRO3 (Homo sapiens, UniProt Q06418); type: functional;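 note: TYRO3 value obtained as one member of a kinome-wide profiling panel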
[20] = molecular target: Serine/threonine-protein kinase Nek2 (Homo sapiens, UniProt P51955); type: functional
[21] = molecular target: Serine/threonine-protein kinase Chk1 (Homo sapiens, UniProt O14757); type: functional;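 note: measured as one member of a kinome-wide kinase profiling panel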
LIM domain kinase 1 = LIM domain kinase 1 (Homo sapiens, UniProt P53667); experiment: Navigating the Kinome. Panel member name: LIMK1; type: functional
Sequence of LIM domain kinase 1 (P53667 whole entry, the tested form may be a part): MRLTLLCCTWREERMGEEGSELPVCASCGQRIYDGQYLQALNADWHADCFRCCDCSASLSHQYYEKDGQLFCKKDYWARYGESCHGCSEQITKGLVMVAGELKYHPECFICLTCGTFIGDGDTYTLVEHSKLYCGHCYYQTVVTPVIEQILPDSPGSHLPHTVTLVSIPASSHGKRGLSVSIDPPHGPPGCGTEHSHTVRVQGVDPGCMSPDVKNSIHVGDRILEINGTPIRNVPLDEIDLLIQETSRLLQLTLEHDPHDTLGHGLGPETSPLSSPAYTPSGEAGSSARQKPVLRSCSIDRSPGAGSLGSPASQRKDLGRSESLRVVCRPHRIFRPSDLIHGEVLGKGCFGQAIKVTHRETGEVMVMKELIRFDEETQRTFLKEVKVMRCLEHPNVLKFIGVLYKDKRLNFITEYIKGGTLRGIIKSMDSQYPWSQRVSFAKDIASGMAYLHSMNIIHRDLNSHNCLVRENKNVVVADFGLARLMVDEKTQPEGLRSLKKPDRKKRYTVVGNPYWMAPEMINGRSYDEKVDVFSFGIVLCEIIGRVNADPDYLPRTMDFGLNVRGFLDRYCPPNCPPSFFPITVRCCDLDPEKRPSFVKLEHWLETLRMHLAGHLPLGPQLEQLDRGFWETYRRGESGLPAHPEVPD

[22] = molecular target: Dual specificity protein kinase CLK4 (Homo sapiens, UniProt Q9HAZ1); type: functional
Sequence of Dual specificity protein kinase CLK4 (Q9HAZ1 whole entry): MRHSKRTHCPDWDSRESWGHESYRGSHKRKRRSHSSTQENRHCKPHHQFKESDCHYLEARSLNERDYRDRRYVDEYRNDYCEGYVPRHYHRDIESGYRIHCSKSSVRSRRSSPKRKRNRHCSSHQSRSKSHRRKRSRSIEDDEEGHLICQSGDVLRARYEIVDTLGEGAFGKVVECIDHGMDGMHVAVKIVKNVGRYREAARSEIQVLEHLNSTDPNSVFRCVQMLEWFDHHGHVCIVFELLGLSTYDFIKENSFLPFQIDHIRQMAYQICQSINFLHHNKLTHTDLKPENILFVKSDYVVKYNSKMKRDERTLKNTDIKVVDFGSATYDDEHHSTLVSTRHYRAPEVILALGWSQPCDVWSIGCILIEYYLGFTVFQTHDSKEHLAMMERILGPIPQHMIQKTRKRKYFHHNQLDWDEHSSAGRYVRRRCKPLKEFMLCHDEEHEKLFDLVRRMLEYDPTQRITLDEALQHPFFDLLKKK

[23] = molecular target: Mitogen-activated protein kinase kinase kinase kinase 2 (Homo sapiens, UniProt Q12851); type: functional;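 note: measured as one member of a kinome-wide kinase panel, with MAP4K2 as the panel entry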
[24] = molecular target: Tyrosine-protein kinase JAK2 (Homo sapiens, UniProt O60674); type: functional;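 note: JAK2 tested as one member of a kinase panel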
[25] = molecular target: Proto-oncogene tyrosine-protein kinase receptor Ret (Homo sapiens, UniProt P07949); type: functional;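 note: measured within a kinome-wide profiling panel, RET as the panel member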
[26] = molecular target: Dual specificity mitogen-activated protein kinase kinase 1 (Homo sapiens, UniProt Q02750); experiment: Navigating the Kinome. Panel member name: MAP2K1; type: functional
Aurora kinase A = Aurora kinase A (Homo sapiens, UniProt O14965); type: functional;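 note: value from the Navigating the Kinome kinase panel profiling, panel entry STK6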
Aurora kinase B = Aurora kinase B (Homo sapiens, UniProt Q96GD4); type: functional

Cc1cc(Cl)ccc1Nc1ncccc1C(N)=O
IC50 (HEK293): > 67.5 µM (inactive) | IC50 [1]: > 67.5 µM (inactive)

Cc1oc2nc(SCCCC(=O)NCCO)nc(N)c2c1C
IC50 [2]: 6.46 µM (active)

O=C(C[S+]([O-])c1ccc(C(F)(F)F)cc1[N+](=O)[O-])Oc1ccc(Cl)cc1 (stereo not given)
EC50 [3]: > 91.2 µM (inactive) | IC50 (Melanocortin receptor 4): > 64.6 µM (inactive) | IC50 [4]: > 64.6 µM (inactive) | EC50 [5]: > 91.2 µM (inactive)

O=C(NN1C(=O)/C(=C\c2ccc(O)c([N+](=O)[O-])c2)SC1=S)c1ccccc1Cl
IC50 (Prothrombin): 62.5 µM (active) | IC50 [6]: 26.8 µM (active) | AC50 [7]: 3.01 µM (active) | IC50 [8]: 31.1 µM (active) | AC50 [9]: 5.26 µM (active)

Cc1ccc(N2C(=O)[C@@H]3C(c4ccc(F)cc4)=NO[C@@H]3C2=O)cc1
EC50 [10]: > 100 µM (inactive)

COc1cccc(CNC(=O)CCNS(=O)(=O)c2cccc3nsnc23)c1
IC50 (HEK293): > 67.5 µM (inactive) | IC50 [1]: > 67.5 µM (inactive)

O=C(c1ccco1)N1CCN(Cc2cc(=O)oc3cc(O)ccc23)CC1
AC50 [11]: 19.5 µM (active)

C=CCOC(=O)c1cc(-c2ccc(/C=C3\C(=O)NC(=O)C(C#N)=C3C)o2)ccc1Cl
IC50 [12]: 12.8 µM (active) | IC50 [13]: 1.2 µM (active) | IC50 [14]: 5 µM (active) | IC50 [15]: 229 µM (active) | IC50 (Ephrin type-A receptor 4): 1.45 µM (active)

CCCCCCCN(c1ccccc1)[C@@H]1C[C@H]2CCCC(=O)N3CC[C@@H](C1)[C@@H]23
IC50 (Melanocortin receptor 4): 7.91 µM (active) | IC50 [4]: 22.6 µM (inactive) | AC50 (Escherichia coli): 13.7 µM (active) | AC50 [16]: 11.4 µM (active) | AC50 [17]: 46.4 µM (active) | AC50 [18]: 4.54 µM (active)

COc1cc(-c2ccc(=O)n(Cc3cccc(C)c3)n2)cc(OC)c1OC
Ki [19]: 2.51 µM (active) | Ki [20]: 3.16 µM (active) | Ki [21]: 1 µM (active) | Ki (LIM domain kinase 1): 1 µM (active) | Ki [22]: 2 µM (active)

O=C1CN=C(c2ccc(F)cc2)c2cn[nH]c2N1
Ki [23]: 63.1 µM (active) | Ki [24]: 100 µM (active) | Ki [25]: 79.4 µM (active) | Ki [26]: 79.4 µM (active)

COc1ccc(-c2cnnc(N/N=C/c3ccc(O)c(O)c3)n2)cc1
AC50 [7]: 0.482 µM (active) | IC50 [15]: 63.9 µM (active)

Nc1ccc(-c2csc3ccnc(N)c23)cc1
Ki (Aurora kinase A): 1.26 µM (active) | Ki (Aurora kinase B): 0.2 µM (active)
